# Measurements published in US20210214448A1, “CCR5 BINDING AGENT FOR THE TREATMENT OF CCR5 POSITIVE METASTATIC CANCER” (CytoDyn Inc., priority 2020, published 2021).
# Entries after “also recorded” stand apart in the source; their conditions may differ.
# Assays:
# CCR5 = CCR5 (Homo sapiens, UniProt P51681); settings: Jiao 2018; cited from earlier work
# [1] = Phase Ib/II mTNBC study: adverse events; assay type: in vivo; settings: Patient D, weekly 350 mg leronlimab + carboplatin every three weeks, up to Cycle 6 Day 1 visit
# Text: (§1) The primary objective of Phase 1b is to determine the safety, tolerability, and maximum tolerated dose (MTD) of PRO 140 in patients with TNBC, when combined with carboplatin to define a recommended Phase II dose of the combination. The primary objective of phase 2b is to evaluate the impact on progression-free survival (PFS) of the combination of PRO 140 and carboplatin in patients with CCR5+ TNBC previously treated with anthracyclines and taxanes in a neoadjuvant and adjuvant setting. For further investigational plan details please refer to section 5.3.5 in SNO01 (IND 141723).
# (§2) Each treatment cycle consisted of 21 days. […] This treatment regimen was used for all subjects enrolled in the mTNBC study, unless otherwise indicated.
# [2] = system: CCR5+ metastatic Triple Negative Breast Cancer (mTNBC); test: Phase Ib/II mTNBC study: tumor imaging scans; assay type: in vivo, human; settings: Patient D, with carboplatin
# Text: as §1, §2
# Scans were taken at the end of every two cycles (every 6 weeks). The subject had Scan 1 after six weeks, Scan 2 after 12 weeks, and Scan 3 after 18 weeks (Table 4).
# [3] = system: MDA-MB-231 cells expressing Luc2-eGFP (MDA-MB-231.pFLUG); test: Breast cancer tumor / lung metastasis model in mice, bioluminescence imaging; assay type: in vivo, female NCI Athymic NCr-nu/nu mice
# Method: Each mouse received one million (10^6) MDA-MB-231 cells expressing Luc2-eGFP (called MDA-MB-231.pFLUG) through the tail vein. […] Treatment was started one day before the injection.
# In vivo bio-luminescence imaging was performed following intraperitoneal injection with 100 μl of D-luciferin (30 mg/mL) to the control and treated groups. […] FIG. 1D is a plot of the percentage of mice with tumors.
# [4] = system: circulating tumor cells (CTC), epithelial mesenchymal transition cells (EMTs) and cancer-associated macrophage-like cells (CAMLs); test: Phase Ib/II mTNBC study: CTC, EMT and CAML counts in blood (LifeTrac Assay, CellSieve filtration); assay type: in vivo, human; settings: for Number of CTCs (PD-L1) / Number of Apoptotic CTCs (CCR5) / Number of CAMLs (CCR5) / Number of CAMLs (PD-L1) / Number of CTCs (CCR5) / Number of EMTs (CCR5) / Number of EMTs (PD-L1) / CAML- Total / EMT-Total / Number of Apoptotic CTC (PD-L1) / CTC-Total: Patient D; for Number of CTCs (PD-L1): baseline 0; for Number of Apoptotic CTCs (CCR5) / Number of CAMLs (CCR5) / Number of CAMLs (PD-L1) / Number of CTCs (CCR5) / Number of EMTs (CCR5) / Number of EMTs (PD-L1): baseline 1; for CAML- Total / EMT-Total: baseline 2; for Number of Apoptotic CTC (PD-L1): baseline 3; for CTC-Total: baseline 5
# Text: as §1, §2
# The blood sample for circulating tumor cells (CTC) and cancer-associated macrophage-like cells (CAMLs) assessment was collected at baseline and subsequently at Day 1 of each treatment cycle to assess changes in CTCs and CAMLs after treatment and to perform correlative analysis between CCR5 expression and PD-L1 expression.
# Creatv Microtech has developed a size-based technology and detection methodology (LifeTrac Assay) that enables the collection and characterization of all cancer-associated cells in the blood i.e., CTCs, epithelial mesenchymal transition cells (EMTs) and CAMLs [Adams Cytometry 2015, Adams RSC 2014]. The CellSieve™ filtration platform is used to capture CAMLs and CTCs.
# CTC and EMT = test: Single patient emergency use IND: CTC and EMT counts; assay type: in vivo, human; settings: Patient A, 700 mg weekly, approximately ten weeks after initiation
# Method: Approximately ten weeks following the initiation of treatment, the subject's CTC and EMT counts were measured, and zero CTCs and zero EMTs were identified. Lesion and nodule sizes were measured in the breast and liver of Patient A and metastases were also qualitatively described (FIG. 6). Protein expression levels of CCR5 (FIG. 7A) and PD-L1 (FIG. 7B) on individual CAMLs from Patient A were measured by flow cytometry and reported as Mean Fluorescence Intensity (MFI). CCR5 MFI (“CCR5 INT”) was calculated by subtracting background signal of a negative control sample from the experimental value. CAML size was also measured and reported in […].
# [5] = system: metastatic HER2+ breast cancer; test: Single patient emergency use IND: CT/MRI imaging of metastases; assay type: in vivo, human; settings: Patient A, 700 mg weekly
# Text: This subject, Patient A, is a person with a diagnosis of metastatic breast cancer, stage IV. The subject previously received Taxotere/Herceptin/Pertuzumab as frontline therapy for metastatic HER2 positive breast cancer. They had partial response for their systemic disease, but then developed diffuse brain metastases (systemic disease stable). They completed whole-brain radiation therapy and continues on Herceptin and Pertuzumab. They have neuropathy and residual side effects from chemotherapy, which limits use of current second-line options due to concern for side effects.
# Prior to enrolling in the trial, the patient had 18 identifiable tumor spots in the brain.
# HIV-1 = settings: at concentrations that do not affect CCR5 chemokine receptor activity; Olson 1999, Trkola 2001; cited from earlier work
# Sequence of CCR5 (P51681 whole entry): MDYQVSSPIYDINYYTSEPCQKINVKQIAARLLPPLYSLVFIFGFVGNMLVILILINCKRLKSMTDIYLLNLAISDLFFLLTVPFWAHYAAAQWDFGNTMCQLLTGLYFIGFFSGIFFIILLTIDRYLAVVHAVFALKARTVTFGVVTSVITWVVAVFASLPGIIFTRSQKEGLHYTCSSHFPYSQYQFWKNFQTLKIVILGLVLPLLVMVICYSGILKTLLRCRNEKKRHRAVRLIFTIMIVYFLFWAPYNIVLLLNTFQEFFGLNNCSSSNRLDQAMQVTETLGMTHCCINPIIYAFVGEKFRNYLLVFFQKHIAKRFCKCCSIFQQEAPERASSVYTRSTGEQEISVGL
compound,measurement,setting,value
COC[C@@H](c1ccc(C(F)(F)F)cc1)N1CCN(C2(C)CCN(C(=O)c3c(C)ncnc3C)CC2)C[C@@H]1C [vicriviroc],Cell killing mediated by DNA-damaging chemotherapeutic agents,CCR5,dramatically enhanced
"leronlimab: humanized monoclonal anti-CCR5 antibody, humanized version of the murine mAb PA14",Serious adverse events,[1],no serious adverse events had been reported
same,New lung nodules,[2]; Scan 3,no new lung nodules found
same,"New lymphadenopathy or metastatic disease on diagnostic CT chest, abdomen and pelvis",[2]; Scan 3,No new
same,Previously identified right hilar lymph node,[2]; Scan 3,resolved
same,Right lung metastasis maximum standardized uptake values (SUVs),"[2]; Scan 3, previously 15.3",values (SUVs) of 6.8 (previously
same,Decrease in size of target lesion,[2]; scan 3 vs previous 2.4×1.9,20%
same,Tumor volume in a breast cancer tumor model,"[3]; mouse, in vivo",significant reduction
same,Detectable levels of CTC,"[4]; Patient C (second subject), with carboplatin, after two weeks of treatment",no detectable levels
same,Reduction in EMT cells,"[4]; Patient C, with carboplatin, after two weeks of treatment",70%
same,CAML count,"[4]; Patient C, with carboplatin, following at least two weeks of treatment, initial count 45",30
same,CCR5 expression on cancer-associated cells,"[4]; Patient D (first patient), with carboplatin, approximately 11 weeks of treatment",large reductions
same,Detectable circulating tumor cells (CTC) or putative metastatic tumor cells in peripheral blood,"[4]; Patient D (first subject), with carboplatin, following 16 weeks of treatment",no detectable
same,Number of CTCs (PD-L1),"[4]; with carboplatin, C1D1",0
same,Number of Apoptotic CTCs (CCR5),"[4]; with carboplatin, C1D1",0
same,Number of CAMLs (CCR5),"[4]; with carboplatin, C1D1",0
same,Number of CAMLs (PD-L1),"[4]; with carboplatin, C1D1",1
same,Number of CTCs (CCR5),"[4]; with carboplatin, C1D1",0
same,Number of EMTs (CCR5),"[4]; with carboplatin, C1D1",1
same,Number of EMTs (PD-L1),"[4]; with carboplatin, C1D1",1
same,CAML- Total,"[4]; with carboplatin, C1D1",1
same,EMT-Total,"[4]; with carboplatin, C1D1",2
same,Number of Apoptotic CTC (PD-L1),"[4]; with carboplatin, C1D1",0
same,CTC-Total,"[4]; with carboplatin, C1D1",0
same,Number of CTCs (PD-L1),"[4]; with carboplatin, C2D1",0
same,Number of Apoptotic CTCs (CCR5),"[4]; with carboplatin, C2D1",0
same,Number of CAMLs (CCR5),"[4]; with carboplatin, C2D1",1
same,Number of CAMLs (PD-L1),"[4]; with carboplatin, C2D1",2
same,Number of CTCs (CCR5),"[4]; with carboplatin, C2D1",0
same,Number of EMTs (CCR5),"[4]; with carboplatin, C2D1",0
same,Number of EMTs (PD-L1),"[4]; with carboplatin, C2D1",0
same,CAML- Total,"[4]; with carboplatin, C2D1",3
same,EMT-Total,"[4]; with carboplatin, C2D1",0
same,Number of Apoptotic CTC (PD-L1),"[4]; with carboplatin, C2D1",0
same,CTC-Total,"[4]; with carboplatin, C2D1",0
same,Number of CTCs (PD-L1),"[4]; with carboplatin, C3D1",0
same,Number of Apoptotic CTCs (CCR5),"[4]; with carboplatin, C3D1",0
same,Number of CAMLs (CCR5),"[4]; with carboplatin, C3D1",3
same,Number of CAMLs (PD-L1),"[4]; with carboplatin, C3D1",1
same,Number of CTCs (CCR5),"[4]; with carboplatin, C3D1",0
same,Number of EMTs (CCR5),"[4]; with carboplatin, C3D1",0
same,Number of EMTs (PD-L1),"[4]; with carboplatin, C3D1",0
same,Number of Apoptotic CTC (PD-L1),"[4]; with carboplatin, C3D1",0
same,Number of CTCs (PD-L1),"[4]; with carboplatin, C4D1",0
same,Number of Apoptotic CTCs (CCR5),"[4]; with carboplatin, C4D1",0
same,Number of CAMLs (CCR5),"[4]; with carboplatin, C4D1",0
same,Number of CAMLs (PD-L1),"[4]; with carboplatin, C4D1",1
same,Number of CTCs (CCR5),"[4]; with carboplatin, C4D1",0
same,Number of EMTs (CCR5),"[4]; with carboplatin, C4D1",0
same,Number of EMTs (PD-L1),"[4]; with carboplatin, C4D1",0
same,CAML- Total,"[4]; with carboplatin, C4D1",1
same,EMT-Total,"[4]; with carboplatin, C4D1",0
same,Number of Apoptotic CTC (PD-L1),"[4]; with carboplatin, C4D1",0
same,CTC-Total,"[4]; with carboplatin, C4D1",0
same,Number of CTCs (PD-L1),"[4]; with carboplatin, C5D1",0
same,Number of Apoptotic CTCs (CCR5),"[4]; with carboplatin, C5D1",0
same,Number of CAMLs (CCR5),"[4]; with carboplatin, C5D1",1
same,Number of CAMLs (PD-L1),"[4]; with carboplatin, C5D1",2
same,Number of CTCs (CCR5),"[4]; with carboplatin, C5D1",0
same,Number of EMTs (CCR5),"[4]; with carboplatin, C5D1",0
same,Number of EMTs (PD-L1),"[4]; with carboplatin, C5D1",0
same,CAML- Total,"[4]; with carboplatin, C5D1",3
same,EMT-Total,"[4]; with carboplatin, C5D1",0
same,Number of Apoptotic CTC (PD-L1),"[4]; with carboplatin, C5D1",0
same,CTC-Total,"[4]; with carboplatin, C5D1",0
same,CAML- Total,"[4]; with carboplatin, C6D1",8
same,EMT-Total,"[4]; with carboplatin, C6D1",0
same,CTC-Total,"[4]; with carboplatin, C6D1",0
same,Detectable circulating tumor cells (CTCs) or putative metastatic tumor cells in peripheral blood,"[4]; first patient of Phase 1b/2 trial, at 11 weeks of treatment",no detectable
same,Decrease of total CTC+EMT counts,"[4]; third subject, with carboplatin, first two weeks of treatment",75%
same,CTC count,CTC and EMT,zero
same,EMT count,CTC and EMT,zero
same,"New metastatic spots in the liver, lung and brain (CT scan)",[5]; approximately four weeks after initial treatment,no sign of new metastatic spots
same,Reduction in tumor volume of the largest brain tumor,[5]; approximately two months,56%
same,New metastasis in the brain,[5]; approximately two months after initial treatment,no new metastasis was detectable
same,Identifiable lesions in the brain,"[5]; approximately two months, 18 identifiable tumor spots before",three
same,HIV-1 entry and replication,HIV-1,potently inhibits
maraviroc,Cell killing mediated by DNA-damaging chemotherapeutic agents,CCR5,dramatically enhanced
same,Lung metastasis / homing of breast cancer cells to the lungs in mouse model,[3]; FIG. 1,block homing of breast cancer cells to the lungs; also recorded: inhibition of lung metastasis; also recorded: effectively blocked lung metastases
